Source: the NIST ThermoML archive (doi:10.1021/je500420g)
Numbers after ± are expanded uncertainties.

Assay: xn = mol fraction of the nth substance listed
Details: 100 kPa, Liquid, Vibrating tube method

Q: Which mass density (293.15 K, x1 = 0.01) does the source give for `[F-].[Rb+]` [rubidium fluoride (RbF)] + O here?
A: 1048.7 ± 0.2 kg/m3

Q: What about the mass density (293.15 K, x1 = 0.03) of the same molecule?
A: 1150.6 ± 0.3 kg/m3

Q: And the mass density (293.15 K, x1 = 0.05)?
A: 1250.3 ± 0.4 kg/m3

Q: What about the mass density (303.15 K, x1 = 0.01) of the same molecule?
A: 1045.7 ± 0.2 kg/m3

Q: What about the mass density (303.15 K, x1 = 0.03) of the same molecule?
A: 1146.5 ± 0.3 kg/m3

Q: What about the mass density (303.15 K, x1 = 0.05) of the same molecule?
A: 1246.1 ± 0.4 kg/m3

Q: What about the mass density (313.15 K, x1 = 0.01) of the same molecule?
A: 1042 ± 0.2 kg/m3

Q: And the mass density (313.15 K, x1 = 0.03)?
A: 1141.9 ± 0.3 kg/m3

Q: What about the mass density (313.15 K, x1 = 0.05) of the same molecule?
A: 1241.4 ± 0.4 kg/m3

Q: What about the mass density (323.15 K, x1 = 0.01) of the same molecule?
A: 1037.6 ± 0.2 kg/m3

Q: And the mass density (323.15 K, x1 = 0.03)?
A: 1137 ± 0.3 kg/m3

Q: And the mass density (323.15 K, x1 = 0.05)?
A: 1236.2 ± 0.4 kg/m3

Q: What about the mass density (333.15 K, x1 = 0.01) of the same molecule?
A: 1032.6 ± 0.2 kg/m3

Q: And the mass density (333.15 K, x1 = 0.03)?
A: 1131.6 ± 0.3 kg/m3

Q: And the mass density (333.15 K, x1 = 0.05)?
A: 1230.6 ± 0.4 kg/m3

Q: Which mass density (293.15 K, x1 = 0.01) does the source give for `[I-].[Rb+]` [rubidium iodide (RbI)] + O here?
A: 1088.1 ± 0.2 kg/m3

Q: What about the mass density (293.15 K, x1 = 0.03) of the same molecule?
A: 1259.7 ± 0.4 kg/m3

Q: And the mass density (293.15 K, x1 = 0.05)?
A: 1423.2 ± 0.5 kg/m3

Q: What about the mass density (303.15 K, x1 = 0.01) of the same molecule?
A: 1084.2 ± 0.2 kg/m3

Q: What about the mass density (303.15 K, x1 = 0.03) of the same molecule?
A: 1254.2 ± 0.4 kg/m3

Q: And the mass density (303.15 K, x1 = 0.05)?
A: 1416.3 ± 0.5 kg/m3

Q: What about the mass density (313.15 K, x1 = 0.01) of the same molecule?
A: 1079.8 ± 0.2 kg/m3

Q: And the mass density (313.15 K, x1 = 0.03)?
A: 1248.4 ± 0.4 kg/m3

Q: What about the mass density (313.15 K, x1 = 0.05) of the same molecule?
A: 1409.2 ± 0.5 kg/m3

Q: And the mass density (323.15 K, x1 = 0.01)?
A: 1074.9 ± 0.3 kg/m3

Q: And the mass density (323.15 K, x1 = 0.03)?
A: 1242.3 ± 0.4 kg/m3

Q: What about the mass density (323.15 K, x1 = 0.05) of the same molecule?
A: 1402 ± 0.5 kg/m3

Q: And the mass density (333.15 K, x1 = 0.01)?
A: 1069.6 ± 0.3 kg/m3

Q: What about the mass density (333.15 K, x1 = 0.03) of the same molecule?
A: 1235.9 ± 0.4 kg/m3

Q: And the mass density (333.15 K, x1 = 0.05)?
A: 1394.6 ± 0.5 kg/m3

Q: Which mass density (293.15 K, x1 = 0.01) does the source give for `[Br-].[Na+]` [sodium bromide] + O here?
A: 1043.6 ± 0.2 kg/m3

Q: And the mass density (293.15 K, x1 = 0.03)?
A: 1129.5 ± 0.3 kg/m3

Q: And the mass density (293.15 K, x1 = 0.05)?
A: 1217.1 ± 0.3 kg/m3

Q: What about the mass density (303.15 K, x1 = 0.01) of the same molecule?
A: 1040 ± 0.2 kg/m3

Q: What about the mass density (303.15 K, x1 = 0.03) of the same molecule?
A: 1125.2 ± 0.3 kg/m3

Q: And the mass density (303.15 K, x1 = 0.05)?
A: 1211.8 ± 0.3 kg/m3

Q: What about the mass density (313.15 K, x1 = 0.01) of the same molecule?
A: 1035.8 ± 0.2 kg/m3

Q: And the mass density (313.15 K, x1 = 0.03)?
A: 1120.4 ± 0.3 kg/m3

Q: And the mass density (313.15 K, x1 = 0.05)?
A: 1206.2 ± 0.3 kg/m3

Q: What about the mass density (323.15 K, x1 = 0.01) of the same molecule?
A: 1031.1 ± 0.2 kg/m3

Q: And the mass density (323.15 K, x1 = 0.03)?
A: 1115.1 ± 0.3 kg/m3

Q: What about the mass density (323.15 K, x1 = 0.05) of the same molecule?
A: 1200.2 ± 0.3 kg/m3

Q: And the mass density (333.15 K, x1 = 0.01)?
A: 1026 ± 0.2 kg/m3

Q: And the mass density (333.15 K, x1 = 0.03)?
A: 1109.4 ± 0.3 kg/m3

Q: What about the mass density (333.15 K, x1 = 0.05) of the same molecule?
A: 1194 ± 0.3 kg/m3

Q: Which results are given for `[Cl-].[Na+]` [sodium chloride] + O?
A: mass density (293.15 K, x1 = 0.01): 1021.3 ± 0.2 kg/m3; mass density (293.15 K, x1 = 0.03): 1066.2 ± 0.2 kg/m3; mass density (293.15 K, x1 = 0.05): 1110.8 ± 0.3 kg/m3; mass density (303.15 K, x1 = 0.01): 1018.3 ± 0.2 kg/m3; mass density (303.15 K, x1 = 0.03): 1062.4 ± 0.2 kg/m3; mass density (303.15 K, x1 = 0.05): 1106.2 ± 0.3 kg/m3; mass density (313.15 K, x1 = 0.03): 1058 ± 0.2 kg/m3; mass density (313.15 K, x1 = 0.05): 1101.6 ± 0.3 kg/m3; mass density (323.15 K, x1 = 0.01): 1010.1 ± 0.2 kg/m3; mass density (323.15 K, x1 = 0.03): 1052.4 ± 0.2 kg/m3; mass density (323.15 K, x1 = 0.05): 1096.4 ± 0.3 kg/m3; mass density (333.15 K, x1 = 0.01): 1005.1 ± 0.2 kg/m3; mass density (333.15 K, x1 = 0.03): 1047.6 ± 0.2 kg/m3; mass density (333.15 K, x1 = 0.05): 1090.9 ± 0.3 kg/m3

Q: With `[F-].[Na+]` [sodium fluoride] + O as the molecule, how does the mass density (293.15 K, x1 = 0.01) read?
A: 1022.7 ± 0.2 kg/m3

Q: What about the mass density (303.15 K, x1 = 0.01) of the same molecule?
A: 1019.7 ± 0.2 kg/m3

Q: What about the mass density (313.15 K, x1 = 0.01) of the same molecule?
A: 1016 ± 0.2 kg/m3

Q: And the mass density (323.15 K, x1 = 0.01)?
A: 1011.5 ± 0.2 kg/m3

Q: And the mass density (333.15 K, x1 = 0.01)?
A: 1006.5 ± 0.2 kg/m3

Q: With `[I-].[Na+]` [sodium iodide] + O as the molecule, how does the mass density (293.15 K, x1 = 0.01) read?
A: 1061.7 ± 0.2 kg/m3

Q: What about the mass density (293.15 K, x1 = 0.03) of the same molecule?
A: 1186.7 ± 0.3 kg/m3

Q: What about the mass density (293.15 K, x1 = 0.05) of the same molecule?
A: 1309.5 ± 0.4 kg/m3

Q: And the mass density (303.15 K, x1 = 0.01)?
A: 1058.4 ± 0.2 kg/m3

Q: And the mass density (303.15 K, x1 = 0.03)?
A: 1181.8 ± 0.3 kg/m3

Q: And the mass density (303.15 K, x1 = 0.05)?
A: 1303.2 ± 0.4 kg/m3

Q: And the mass density (313.15 K, x1 = 0.01)?
A: 1054.2 ± 0.2 kg/m3

Q: And the mass density (313.15 K, x1 = 0.03)?
A: 1176.3 ± 0.3 kg/m3

Q: What about the mass density (313.15 K, x1 = 0.05) of the same molecule?
A: 1296.5 ± 0.4 kg/m3

Q: What about the mass density (323.15 K, x1 = 0.01) of the same molecule?
A: 1049.5 ± 0.2 kg/m3

Q: What about the mass density (323.15 K, x1 = 0.03) of the same molecule?
A: 1169.1 ± 0.3 kg/m3

Q: What about the mass density (323.15 K, x1 = 0.05) of the same molecule?
A: 1289.5 ± 0.4 kg/m3

Q: What about the mass density (333.15 K, x1 = 0.01) of the same molecule?
A: 1044.1 ± 0.2 kg/m3

Q: And the mass density (333.15 K, x1 = 0.03)?
A: 1163.4 ± 0.3 kg/m3

Q: What about the mass density (333.15 K, x1 = 0.05) of the same molecule?
A: 1282.2 ± 0.4 kg/m3
